≈ marks a conversion by molar mass, not a printed value.
Tested on: Mycobacterium tuberculosis
Assay: Antimycobacterial activity against Mycobacterium tuberculosis H37Rv by agar dilution method
Type: functional

| SMILES | MIC |
| --- | --- |
| N#CN1C(c2ccc(Cl)cc2)C(c2ccccc2)C(=O)C(c2ccccc2)C1c1ccc(Cl)cc1 (stereo not drawn) | 25.1 µM (≈ 12.5 µg/mL) |
| NNC(=O)c1ccncc1 [ISONIAZID] | 0.4 µM (≈ 0.0549 µg/mL) |
| NC(=O)c1cnccn1 [PYRAZINAMIDE] | 50.8 µM (≈ 6.25 µg/mL) |
| O=C1[C@H](c2ccccc2)[C@@H](c2ccc(F)cc2)N[C@@H](c2ccc(F)cc2)[C@@H]1c1ccccc1 | 7.12 µM (≈ 3.13 µg/mL) |
| N#CN1C(c2ccccc2)C(c2ccccc2)C(=O)C(c2ccccc2)C1c1ccccc1 (stereo not drawn) | 58.3 µM (≈ 25 µg/mL) |
| Cc1ccc(C2CC(=O)C(c3ccccc3)C(c3ccc(C)cc3)N2N=O)cc1 (stereo not drawn) | 8.14 µM (≈ 3.13 µg/mL) |
| Cc1ccccc1C1C(c2ccccc2)C(=O)C(c2ccccc2)C(c2ccccc2C)N1N=O (stereo not drawn) | 6.79 µM (≈ 3.13 µg/mL) |
| O=C1C[C@H](c2ccc(F)cc2)N[C@H](c2ccc(F)cc2)[C@H]1c1ccccc1 | 34.4 µM (≈ 12.5 µg/mL) |
| Cc1ccc([C@H]2N[C@@H](c3ccc(C)cc3)[C@H](c3ccccc3)C(=O)[C@@H]2c2ccccc2)cc1 | 29 µM (≈ 12.5 µg/mL) |
| O=C1C[C@H](c2ccc(Cl)cc2)N[C@H](c2ccc(Cl)cc2)[C@H]1c1ccccc1 | 31.5 µM (≈ 12.5 µg/mL) |
| Cc1ccccc1[C@H]1N[C@@H](c2ccccc2C)CC(=O)[C@@H]1c1ccccc1 | 70.3 µM (≈ 25 µg/mL) |
| COc1ccc(C2CC(=O)C(c3ccccc3)C(c3ccc(OC)cc3)N2C#N)cc1 (stereo not drawn) | 30.3 µM (≈ 12.5 µg/mL) |
| Cc1ccccc1C1CC(=O)C(c2ccccc2)C(c2ccccc2C)N1N=O (stereo not drawn) | 8.14 µM (≈ 3.13 µg/mL) |
| Cc1ccc([C@H]2N[C@@H](c3ccc(C)cc3)CC(=O)[C@@H]2c2ccccc2)cc1 | 70.3 µM (≈ 25 µg/mL) |
| COc1ccc(C2C(c3ccccc3)C(=O)C(c3ccccc3)C(c3ccc(OC)cc3)N2N=O)cc1 (stereo not drawn) | 12.7 µM (≈ 6.25 µg/mL) |
| COc1ccc([C@H]2N[C@@H](c3ccc(OC)cc3)[C@H](c3ccccc3)C(=O)[C@@H]2c2ccccc2)cc1 | 27 µM (≈ 12.5 µg/mL) |
| N#CN1C(c2ccc(F)cc2)CC(=O)C(c2ccccc2)C1c1ccc(F)cc1 (stereo not drawn) | 16.1 µM (≈ 6.25 µg/mL) |
| Cc1ccccc1C1C(c2ccccc2)C(=O)C(c2ccccc2)C(c2ccccc2C)N1C#N (stereo not drawn) | 27.4 µM (≈ 12.5 µg/mL) |
| O=NN1C(c2ccc(F)cc2)CC(=O)C(c2ccccc2)C1c1ccc(F)cc1 (stereo not drawn) | 3.97 µM (≈ 1.56 µg/mL) |

| SMILES | MIC |
| --- | --- |
| N#CN1C(c2ccccc2Cl)C(c2ccccc2)C(=O)C(c2ccccc2)C1c1ccccc1Cl (stereo not drawn) | 12.6 µM (≈ 6.25 µg/mL) |
| O=NN1C(c2ccccc2)CC(=O)C(c2ccccc2)C1c1ccccc1 (stereo not drawn) | 17.5 µM (≈ 6.25 µg/mL) |
| Cc1ccccc1[C@H]1N[C@@H](c2ccccc2C)[C@H](c2ccccc2)C(=O)[C@@H]1c1ccccc1 | 29 µM (≈ 12.5 µg/mL) |
| Cc1ccc(C2CC(=O)C(c3ccccc3)C(c3ccc(C)cc3)N2C#N)cc1 (stereo not drawn) | 65.7 µM (≈ 25 µg/mL) |
| O=NN1C(c2ccc(Cl)cc2)C(c2ccccc2)C(=O)C(c2ccccc2)C1c1ccc(Cl)cc1 (stereo not drawn) | 3.11 µM (≈ 1.56 µg/mL) |
| N#CN1C(c2ccc(Cl)cc2)CC(=O)C(c2ccccc2)C1c1ccc(Cl)cc1 (stereo not drawn) | 29.7 µM (≈ 12.5 µg/mL) |
| O=NN1C(c2ccc(Cl)cc2)CC(=O)C(c2ccccc2)C1c1ccc(Cl)cc1 (stereo not drawn) | 7.35 µM (≈ 3.13 µg/mL) |
| O=C1[C@H](c2ccccc2)[C@@H](c2ccccc2)N[C@@H](c2ccccc2)[C@@H]1c1ccccc1 | 62 µM (≈ 25 µg/mL) |
| N#CN1C(c2ccccc2)CC(=O)C(c2ccccc2)C1c1ccccc1 (stereo not drawn) | 70.9 µM (≈ 25 µg/mL) |
| COc1ccccc1C1C(c2ccccc2)C(=O)C(c2ccccc2)C(c2ccccc2OC)N1N=O (stereo not drawn) | 6.35 µM (≈ 3.13 µg/mL) |
| COc1ccccc1[C@H]1N[C@@H](c2ccccc2OC)[C@H](c2ccccc2)C(=O)[C@@H]1c1ccccc1 | 27 µM (≈ 12.5 µg/mL) |
| O=NN1C(c2ccccc2Cl)C(c2ccccc2)C(=O)C(c2ccccc2)C1c1ccccc1Cl (stereo not drawn) | 3.11 µM (≈ 1.56 µg/mL) |
| O=C1[C@H](c2ccccc2)[C@@H](c2ccc(Cl)cc2)N[C@@H](c2ccc(Cl)cc2)[C@@H]1c1ccccc1 | 13.2 µM (≈ 6.25 µg/mL) |
| O=NN1C(c2ccccc2)C(c2ccccc2)C(=O)C(c2ccccc2)C1c1ccccc1 (stereo not drawn) | 14.4 µM (≈ 6.25 µg/mL) |
| Cc1ccc(C2C(c3ccccc3)C(=O)C(c3ccccc3)C(c3ccc(C)cc3)N2N=O)cc1 (stereo not drawn) | 6.79 µM (≈ 3.13 µg/mL) |
| COc1ccccc1[C@H]1N[C@@H](c2ccccc2OC)CC(=O)[C@@H]1c1ccccc1 | 64.5 µM (≈ 25 µg/mL) |
| O=C1[C@H](c2ccccc2)[C@@H](c2ccccc2Cl)N[C@@H](c2ccccc2Cl)[C@@H]1c1ccccc1 | 13.2 µM (≈ 6.25 µg/mL) |
| CC[C@@H](CO)NCCN[C@@H](CC)CO [ETHAMBUTOL] | 7.6 µM (≈ 1.55 µg/mL) |
| O=C1C[C@H](c2ccccc2Cl)N[C@H](c2ccccc2Cl)[C@H]1c1ccccc1 | 31.5 µM (≈ 12.5 µg/mL) |

Reference: ChEMBL document CHEMBL1795295, “Synthesis and antimycobacterial activity of highly functionalized tetrahydro-4(1H)-pyridinones” (2011)
